From PubChem BioAssay (NCI)
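Five compound concentrations were applied to cells in 96-well plates for 48 hours; endpoints were derived by simple linear interpolation of the resulting dose-response curve. The concentration for full growth arrest is given as TGI.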

Legend:
Assay in all cases: DTP human tumour cell line panel, 48 h
CCRF-CEM leukemia = test system: CCRF-CEM leukemia
A549 NSCLC = test system: A549 NSCLC
OVCAR-3 ovarian = test system: OVCAR-3 ovarian
LOX IMVI melanoma = test system: LOX IMVI melanoma
SK-OV-3 ovarian = test system: SK-OV-3 ovarian
T-47D breast = test system: T-47D breast
A498 renal = test system: A498 renal
DU-145 prostate = test system: DU-145 prostate
HCT-15 colon = test system: HCT-15 colon
EKVX NSCLC = test system: EKVX NSCLC
RXF 393 renal = test system: RXF 393 renal
IGROV1 ovarian = test system: IGROV1 ovarian
NCI/ADR-RES ovarian = test system: NCI/ADR-RES ovarian
K-562 leukemia = test system: K-562 leukemia
HCC-2998 colon = test system: HCC-2998 colon
SN12C renal = test system: SN12C renal
TK-10 renal = test system: TK-10 renal
KM12 colon = test system: KM12 colon
SW-620 colon = test system: SW-620 colon
HCT-116 colon = test system: HCT-116 colon
RPMI-8226 leukemia = test system: RPMI-8226 leukemia
MDA-MB-435 = test system: MDA-MB-435
HS 578T breast = test system: HS 578T breast
MOLT-4 leukemia = test system: MOLT-4 leukemia
MALME-3M melanoma = test system: MALME-3M melanoma
SK-MEL-5 melanoma = test system: SK-MEL-5 melanoma
OVCAR-4 ovarian = test system: OVCAR-4 ovarian
HL-60(TB) leukemia = test system: HL-60(TB) leukemia
HOP-92 NSCLC = test system: HOP-92 NSCLC
MDA-MB-231 breast = test system: MDA-MB-231 breast
PC-3 prostate = test system: PC-3 prostate
BT-549 breast = test system: BT-549 breast
SNB-19 CNS = test system: SNB-19 CNS
M14 melanoma = test system: M14 melanoma
MDA-N = test system: MDA-N
UACC-257 melanoma = test system: UACC-257 melanoma
CAKI-1 renal = test system: CAKI-1 renal
SNB-75 CNS = test system: SNB-75 CNS
SF-295 CNS = test system: SF-295 CNS
U251 CNS = test system: U251 CNS
SF-268 CNS = test system: SF-268 CNS
OVCAR-5 ovarian = test system: OVCAR-5 ovarian
SK-MEL-2 melanoma = test system: SK-MEL-2 melanoma
NCI-H23 lung = test system: NCI-H23 lung
NCI-H460 lung = test system: NCI-H460 lung
NCI-H522 lung = test system: NCI-H522 lung
NCI-H226 lung = test system: NCI-H226 lung
UO-31 renal = test system: UO-31 renal
SK-MEL-28 melanoma = test system: SK-MEL-28 melanoma
UACC-62 melanoma = test system: UACC-62 melanoma
MCF7 breast = test system: MCF7 breast
COLO 205 colon = test system: COLO 205 colon
ACHN renal = test system: ACHN renal
SR leukemia = test system: SR leukemia
HOP-62 NSCLC = test system: HOP-62 NSCLC
SF-539 CNS = test system: SF-539 CNS
786-0 renal = test system: 786-0 renal
OVCAR-8 ovarian = test system: OVCAR-8 ovarian
HT29 colon = test system: HT29 colon

## Clc1ccc(COc2ccccc2/C=N/c2c(-c3ccco3)nc3ccccn23)c(Cl)c1
CCRF-CEM leukemia
  TGI: 63.7 µM
A549 NSCLC
  TGI: > 100 µM
OVCAR-3 ovarian
  TGI: > 100 µM
LOX IMVI melanoma
  TGI: 35.5 µM
SK-OV-3 ovarian
  TGI: > 100 µM
T-47D breast
  TGI: > 100 µM
A498 renal
  TGI: > 100 µM
DU-145 prostate
  TGI: 76 µM
HCT-15 colon
  TGI: 88.3 µM
EKVX NSCLC
  TGI: > 100 µM
RXF 393 renal
  TGI: 56.3 µM
IGROV1 ovarian
  TGI: > 100 µM
NCI/ADR-RES ovarian
  TGI: 96.1 µM
K-562 leukemia
  TGI: > 100 µM
HCC-2998 colon
  TGI: > 100 µM
SN12C renal
  TGI: 66.6 µM
TK-10 renal
  TGI: 88.6 µM
KM12 colon
  TGI: > 100 µM
SW-620 colon
  TGI: > 100 µM
HCT-116 colon
  TGI: 36.7 µM
RPMI-8226 leukemia
  TGI: 86.2 µM
MDA-MB-435
  TGI: 49.1 µM
HS 578T breast
  TGI: > 100 µM
MOLT-4 leukemia
  TGI: > 100 µM
MALME-3M melanoma
  TGI: > 100 µM
SK-MEL-5 melanoma
  TGI: 32 µM
OVCAR-4 ovarian
  TGI: > 100 µM
HL-60(TB) leukemia
  TGI: 71.2 µM
HOP-92 NSCLC
  TGI: 57.4 µM
MDA-MB-231 breast
  TGI: 52.6 µM
PC-3 prostate
  TGI: > 100 µM
BT-549 breast
  TGI: 89.6 µM
SNB-19 CNS
  TGI: > 100 µM
M14 melanoma
  TGI: 74.1 µM
MDA-N
  TGI: 70.2 µM
UACC-257 melanoma
  TGI: > 100 µM
CAKI-1 renal
  TGI: > 100 µM
SNB-75 CNS
  TGI: 69.7 µM
SF-295 CNS
  TGI: > 100 µM
U251 CNS
  TGI: > 100 µM
SF-268 CNS
  TGI: > 100 µM
OVCAR-5 ovarian
  TGI: > 100 µM
SK-MEL-2 melanoma
  TGI: 42.8 µM
NCI-H23 lung
  TGI: > 100 µM
NCI-H460 lung
  TGI: > 100 µM
NCI-H522 lung
  TGI: > 100 µM
NCI-H226 lung
  TGI: > 100 µM
UO-31 renal
  TGI: > 100 µM
SK-MEL-28 melanoma
  TGI: > 100 µM
UACC-62 melanoma
  TGI: > 100 µM
MCF7 breast
  TGI: 62 µM
COLO 205 colon
  TGI: > 100 µM
ACHN renal
  TGI: > 100 µM
SR leukemia
  TGI: 49.2 µM
HOP-62 NSCLC
  TGI: > 100 µM
SF-539 CNS
  TGI: 47.3 µM
786-0 renal
  TGI: 75.9 µM
OVCAR-8 ovarian
  TGI: > 100 µM
HT29 colon
  TGI: > 100 µM
